The values below come from US12054483B2, “Small molecule inhibitors of DYRK/CLK and uses thereof” (Arizona Board of Regents on Behalf of the University of …, priority 2018, dated 2024).

The experiment addresses DYRK1A (Homo sapiens, UniProt Q13627). Nature of the experiment: Affinity testing of compounds with DYRK1A (KD). Type of experiment: binding. As to conditions: DYRK1A affinity key classes.

What is called Kd is the equilibrium constant for the complex coming apart. Regarding `Cc1nc2ccc(-c3ccnc(N)c3)nc2n1-c1cccc(CN2C[C@H](C)O[C@@H](C)C2)c1` [Compound 156, 4-(3-(3-(((2S,6S)-2,6-dimethylmorpholino)methyl)phenyl)-2-methyl-3H-imidazo[4,5-b]pyridin-5-yl)pyridin-2-amine], the Kd is 0.5 to 100 nM.

Take `Cc1nc2ncc(-c3ccnc(N)c3)nc2n1-c1ccc2[nH]cnc2c1` [Compound 130, 4-(1-(1H-benzo[d]imidazol-5-yl)-2-methyl-1H-imidazo[4,5-b]pyrazin-6-yl)pyridin-2-amine]: the equilibrium dissociation constant (Kd) fell in the range of 101 to 500 nM.

On to `Cc1nc2ccc(-c3cc[n+]([O-])cc3)nc2n1-c1ccc2c(c1)OCO2` [Compound 60, 4-(3-(benzo[d][1,3]dioxol-5-yl)-2-methyl-3H-imidazo[4,5-b]pyridin-5-yl)-1λ^4-pyridin-2-ylium-1-olate], for which the dissociation constant Kd is 501 to 10000 nM.

Regarding `Cc1nc2ccc(-c3ccncc3)nc2n1-c1ccc(CN2[C@@H]3COC[C@H]2CC(=O)C3)cc1` [Compound 123, (1R,5S)-9-(4-(2-methyl-5-(pyridin-4-yl)-3H-imidazo[4,5-b]pyridin-3-yl)benzyl)-3-oxa-9-azabicyclo[3.3.1]nonan-7-one], the Kd was in the range of 101 to 500 nM.

As to `Cc1nc2ccc(-c3ccncc3)nc2n1-c1ccc(C(=O)NC2CC(F)(F)C2)cc1` [Compound 58, N-(3,3-difluorocyclobutyl)-4-(2-methyl-5-(pyridin-4-yl)-3H-imidazo[4,5-b]pyridin-3-yl)benzamide], the Kd fell in the range of 101 to 500 nM.

Molecule `Cc1nc2ccc(-c3ccnc(N)c3)nc2n1-c1ccc2[nH]cnc2c1` [Compound 49, 4-(3-(1H-benzo[d]imidazol-5-yl)-2-methyl-3H-imidazo[4,5-b]pyridin-5-yl)pyridin-2-amine] registered a dissociation constant Kd of 0.5 to 100 nM.

`CC(=O)N1CCN(c2ccc(-n3c(C)nc4ccc(-c5ccnc(N)c5)nc43)cc2F)CC1` [Compound 184] yielded a dissociation constant Kd of 0.5 to 100 nM.

Consider `Cc1nc2ccc(-c3ccnc4[nH]ccc34)nc2n1-c1ccc(CN2CCOCC2)cc1` [Compound 179, 4-(4-(2-methyl-5-(1H-pyrrolo[2,3-b]pyridin-4-yl)-3H-imidazo[4,5-b]pyridin-3-yl)benzyl)morpholine], for which the Kd lay in the range of 0.5 to 100 nM.

`Cc1cn2nc(-c3ccnc(N)c3)ccc2n1` [Compound 25, 4-(2-methylimidazo[1,2-b]pyridazin-6-yl)pyridin-2-amine] displayed a Kd of 0.5 to 100 nM.

For the molecule `CC(=O)N1C[C@@H]2[C@H](C1)[C@H]2n1c(C)nc2ccc(-c3ccncc3)nc21` [Compound 38, 1-((1R,5S,6s)-6-(2-methyl-5-(pyridin-4-yl)-3H-imidazo[4,5-b]pyridin-3-yl)-3-azabicyclo[3.1.0]hexan-3-yl)ethan-1-one], the dissociation constant (Kd) is 0.5 to 100 nM.

With `Cc1nc2ccc(-c3ccncc3)nc2n1-c1ccc2c(c1)OCC(=O)N2` [Compound 37, 7-(2-methyl-5-(pyridin-4-yl)-3H-imidazo[4,5-b]pyridin-3-yl)-2H-benzo[b][1,4]oxazin-3(4H)-one], the Kd lay within 0.5 to 100 nM.

As to `Cc1nc2ccc(-c3cn[nH]c3)nc2n1-c1ccc2[nH]cnc2c1` [Compound 33, 3-(1H-benzo[d]imidazol-5-yl)-2-methyl-5-(1H-pyrazol-4-yl)-3H-imidazo[4,5-b]pyridine], the Kd lay in the range of 0.5 to 100 nM.

`Fc1cc(-c2ccncc2)cc2c1ncn2-c1ccc2c(c1)OCO2` [Compound 3, 1-(benzo[d][1,3]dioxol-5-yl)-4-fluoro-6-(pyridin-4-yl)-1H-benzo[d]imidazole] had a dissociation constant (Kd) of 0.5 to 100 nM.

Turning to `Cc1nc2ccc(-c3ccnc(N)c3)nc2n1-c1cnc(N2CCOCC2)c(Cl)c1` [Compound 166, 4-(3-(5-chloro-6-morpholinopyridin-3-yl)-2-methyl-3H-imidazo[4,5-b]pyridin-5-yl)pyridin-2-amine], the equilibrium dissociation constant (Kd) lay within 0.5 to 100 nM.

As to `Cc1nc2ccc(-c3ccnc(N)c3)nc2n1-c1ccc2c(c1)OCC(=O)N2` [Compound 46, 7-(5-(2-aminopyridin-4-yl)-2-methyl-3H-imidazo[4,5-b]pyridin-3-yl)-2H-benzo[b][1,4]oxazin-3(4H)-one], the Kd was 0.5 to 100 nM.

Molecule `Cc1nc2ccc(-c3ccnc(N)c3)nc2n1-c1cc(F)c(N2CCOCC2)c(F)c1` [Compound 172, 4-(3-(3,5-difluoro-4-morpholinophenyl)-2-methyl-3H-imidazo[4,5-b]pyridin-5-yl)pyridin-2-amine] showed a Kd of 0.5 to 100 nM.

Turning to `Cc1cc(-c2ccc3nc(C)n(-c4ccc5[nH]cnc5c4)c3n2)cc(C)n1` [Compound 51, 3-(1H-benzo[d]imidazol-5-yl)-5-(2,6-dimethylpyridin-4-yl)-2-methyl-3H-imidazo[4,5-b]pyridine], the Kd lay in the range of 101 to 500 nM.

As to `Cc1cc(-c2ccc3ncc(-c4ccc(CN5CCCCC5)cc4)n3n2)ccn1` [Compound 92, 6-(2-methylpyridin-4-yl)-3-(4-(piperidin-1-ylmethyl)phenyl)imidazo[1,2-b]pyridazine], the Kd lay in the range of 101 to 500 nM.

In the case of `Cc1nc2ccc(-c3ccncc3)nc2n1-c1ccc(CN2C[C@H](C)O[C@@H](C)C2)cc1` [Compound 118, (2S,6S)-2,6-dimethyl-4-(4-(2-methyl-5-(pyridin-4-yl)-3H-imidazo[4,5-b]pyridin-3-yl)benzyl)morpholine], the dissociation constant (Kd) is 0.5 to 100 nM.

Regarding `Cc1nc2ncc(-c3ccncc3)nc2n1-c1ccc2[nH]cnc2c1` [Compound 131, 1-(1H-benzo[d]imidazol-5-yl)-2-methyl-6-(pyridin-4-yl)-1H-imidazo[4,5-b]pyrazine], the Kd is 101 to 500 nM.

`c1n[nH]cc1-c1ccc2ncc(-c3ccc4c(c3)OCO4)n2n1` [Compound 27, 3-(benzo[d][1,3]dioxol-5-yl)-6-(1H-pyrazol-4-yl)imidazo[1,2-b]pyridazine] had a Kd of 0.5 to 100 nM.

`Nc1cc(-c2ccc3ncc(-c4ccc(CN5CCOCC5)cc4)n3n2)ccn1` [Compound 108, 4-(3-(4-(morpholinomethyl)phenyl)imidazo[1,2-b]pyridazin-6-yl)pyridin-2-amine]: the dissociation constant (Kd) was in the range of 0.5 to 100 nM.

Regarding `CC(=O)N1CCN(Cc2ccc(-c3cnc4ccc(-c5ccncc5)nn34)cc2)CC1` [Compound 104, 1-(4-(4-(6-(pyridin-4-yl)imidazo[1,2-b]pyridazin-3-yl)benzyl)piperazin-1-yl)ethan-1-one], the Kd fell in the range of 0.5 to 100 nM.

Regarding `Cc1nc2ccc(-c3ccncc3)nc2n1-c1cccc(CN2CCOCC2)c1` [Compound 140, 4-(3-(2-methyl-5-(pyridin-4-yl)-3H-imidazo[4,5-b]pyridin-3-yl)benzyl)morpholine], the Kd was in the range of 0.5 to 100 nM.

`Cc1nc2ccc(-c3ccnc(N)c3)nc2n1-c1ccc(N2CCOCC2)nc1` [Compound 158, 4-(2-methyl-3-(6-morpholinopyridin-3-yl)-3H-imidazo[4,5-b]pyridin-5-yl)pyridin-2-amine] gave a Kd of 0.5 to 100 nM.

Molecule `COC(=O)c1ccc(-c2cnc3ccc(-c4ccncc4)nn23)cc1` [Compound 72, methyl 4-(6-(pyridin-4-yl)imidazo[1,2-b]pyridazin-3-yl)benzoate] displayed a Kd of 0.5 to 100 nM.

Turning to `Cc1nc2ccc(-c3ccnc(N)c3)nc2n1-c1ccc(N2C[C@@H](C)O[C@@H](C)C2)c(F)c1` [Compound 181, 4-(3-(4-((2S,6R)-2,6-dimethylmorpholino)-3-fluorophenyl)-2-methyl-3H-imidazo[4,5-b]pyridin-5-yl)pyridin-2-amine], the Kd was 0.5 to 100 nM.

Consider `Cc1nc2ccc(-c3ccncc3)nc2n1-c1ccc(CN2CC3CCC(C2)O3)cc1` [Compound 122, 3-(4-(2-methyl-5-(pyridin-4-yl)-3H-imidazo[4,5-b]pyridin-3-yl)benzyl)-8-oxa-3-azabicyclo[3.2.1]octane], for which the equilibrium dissociation constant (Kd) fell in the range of 0.5 to 100 nM.

For `Cc1nc2ccc(-c3ccncc3)nc2n1-c1ccc(CN2CCC3(COC3)C2)cc1` [Compound 121, 6-(4-(2-methyl-5-(pyridin-4-yl)-3H-imidazo[4,5-b]pyridin-3-yl)benzyl)-2-oxa-6-azaspiro[3.4]octane], the Kd is 0.5 to 100 nM.

As for `OC1CCCN(Cc2ccc(-c3cnc4ccc(-c5ccncc5)nn34)cc2)C1` (stereo not drawn) [Compound 101, 1-(4-(6-(pyridin-4-yl)imidazo[1,2-b]pyridazin-3-yl)benzyl)piperidin-3-ol], the dissociation constant Kd was 101 to 500 nM.

Molecule `COC(=O)c1ccc(-n2cnc3ccc(-c4ccncc4)nc32)cc1` [Compound 9, methyl 4-(5-(pyridin-4-yl)-3H-imidazo[4,5-b]pyridin-3-yl)benzoate] came in with a dissociation constant (Kd) of 0.5 to 100 nM.

Turning to `NC(=O)c1ccc(-n2cnc3ccc(-c4ccncc4)c(F)c32)nc1` [Compound 15, 6-(7-fluoro-6-(pyridin-4-yl)-1H-benzo[d]imidazol-1-yl)nicotinamide], the equilibrium dissociation constant (Kd) lay within 0.5 to 100 nM.

Molecule `Cc1nc2ccc(-c3ccnc(N)c3)nc2n1-c1ccc(N2CCC3(COC3)C2)c(F)c1` [Compound 169, 4-(3-(3-fluoro-4-(2-oxa-6-azaspiro[3.4]octan-6-yl)phenyl)-2-methyl-3H-imidazo[4,5-b]pyridin-5-yl)pyridin-2-amine] gave an equilibrium dissociation constant (Kd) of 0.5 to 100 nM.

The molecule `Cc1nc2ccc(-c3ccnc(N)c3)c(F)c2n1-c1ccc(N2CCOCC2)cc1` [Compound 127, 4-(7-fluoro-2-methyl-1-(4-morpholinophenyl)-1H-benzo[d]imidazol-6-yl)pyridin-2-amine] returned a Kd of 0.5 to 100 nM.

In turn, `O=C(O)c1ccc(-n2cnc3c(F)cc(-c4ccncc4)cc32)cc1` [Compound 17, 4-(4-fluoro-6-(pyridin-4-yl)-1H-benzo[d]imidazol-1-yl)benzoic acid] had a Kd of 101 to 500 nM.

`COC(=O)c1ccc(-n2cnc3ccc(-c4ccncc4)c(F)c32)cc1` [Compound 5, methyl 4-(7-fluoro-6-(pyridin-4-yl)-1H-benzo[d]imidazol-1-yl)benzoate] registered an equilibrium dissociation constant (Kd) of 0.5 to 100 nM.

In the case of `CN1CCN(c2cnc3ccc(-c4ccncc4)nn23)CC1` [Compound 86, 3-(4-methylpiperazin-1-yl)-6-(pyridin-4-yl)imidazo[1,2-b]pyridazine], the dissociation constant (Kd) fell in the range of 501 to 10000 nM.

Take `Nc1cc(-c2ccn3ncc(-c4ccc(CN5CCOCC5)cc4)c3n2)ccn1` [Compound 112, 4-(3-(4-(morpholinomethyl)phenyl)pyrazolo[1,5-a]pyrimidin-5-yl)pyridin-2-amine]: the dissociation constant (Kd) fell in the range of 501 to 10000 nM.

`Cc1cc(-c2ccc3ncc(N4CCN(C5COC5)CC4)n3n2)ccn1` [Compound 84, 6-(2-methylpyridin-4-yl)-3-(4-(oxetan-3-yl)piperazin-1-yl)imidazo[1,2-b]pyridazine] registered a Kd of 501 to 10000 nM.
